Biological target: NR1/NR2B (Homo sapiens (Human), UniProt Q05586+Q13224)
Assay: Cell assay: FDSS Ca2+ influx inhibition in HEK293 cells expressing NR1/NR2B;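 note: Fluo-8 Ca2+ signal read on Hamamatsu FDSS 6000 after glutamate, glycine and Ca2+ challenge following 10 min compound preincubation, end/baseline fluorescence ratio compared with MK801 control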
Conditions: Ca2+ influx
[1] = NR2B NAM IC50, HEK293 cells expressing NR1/NR2B
[2] = Binned Activity, HEK293 cells expressing NR1/NR2B, binned NR2B NAM IC50

Chain of NR1/NR2B (Q13224 27-1484, other chains not shown): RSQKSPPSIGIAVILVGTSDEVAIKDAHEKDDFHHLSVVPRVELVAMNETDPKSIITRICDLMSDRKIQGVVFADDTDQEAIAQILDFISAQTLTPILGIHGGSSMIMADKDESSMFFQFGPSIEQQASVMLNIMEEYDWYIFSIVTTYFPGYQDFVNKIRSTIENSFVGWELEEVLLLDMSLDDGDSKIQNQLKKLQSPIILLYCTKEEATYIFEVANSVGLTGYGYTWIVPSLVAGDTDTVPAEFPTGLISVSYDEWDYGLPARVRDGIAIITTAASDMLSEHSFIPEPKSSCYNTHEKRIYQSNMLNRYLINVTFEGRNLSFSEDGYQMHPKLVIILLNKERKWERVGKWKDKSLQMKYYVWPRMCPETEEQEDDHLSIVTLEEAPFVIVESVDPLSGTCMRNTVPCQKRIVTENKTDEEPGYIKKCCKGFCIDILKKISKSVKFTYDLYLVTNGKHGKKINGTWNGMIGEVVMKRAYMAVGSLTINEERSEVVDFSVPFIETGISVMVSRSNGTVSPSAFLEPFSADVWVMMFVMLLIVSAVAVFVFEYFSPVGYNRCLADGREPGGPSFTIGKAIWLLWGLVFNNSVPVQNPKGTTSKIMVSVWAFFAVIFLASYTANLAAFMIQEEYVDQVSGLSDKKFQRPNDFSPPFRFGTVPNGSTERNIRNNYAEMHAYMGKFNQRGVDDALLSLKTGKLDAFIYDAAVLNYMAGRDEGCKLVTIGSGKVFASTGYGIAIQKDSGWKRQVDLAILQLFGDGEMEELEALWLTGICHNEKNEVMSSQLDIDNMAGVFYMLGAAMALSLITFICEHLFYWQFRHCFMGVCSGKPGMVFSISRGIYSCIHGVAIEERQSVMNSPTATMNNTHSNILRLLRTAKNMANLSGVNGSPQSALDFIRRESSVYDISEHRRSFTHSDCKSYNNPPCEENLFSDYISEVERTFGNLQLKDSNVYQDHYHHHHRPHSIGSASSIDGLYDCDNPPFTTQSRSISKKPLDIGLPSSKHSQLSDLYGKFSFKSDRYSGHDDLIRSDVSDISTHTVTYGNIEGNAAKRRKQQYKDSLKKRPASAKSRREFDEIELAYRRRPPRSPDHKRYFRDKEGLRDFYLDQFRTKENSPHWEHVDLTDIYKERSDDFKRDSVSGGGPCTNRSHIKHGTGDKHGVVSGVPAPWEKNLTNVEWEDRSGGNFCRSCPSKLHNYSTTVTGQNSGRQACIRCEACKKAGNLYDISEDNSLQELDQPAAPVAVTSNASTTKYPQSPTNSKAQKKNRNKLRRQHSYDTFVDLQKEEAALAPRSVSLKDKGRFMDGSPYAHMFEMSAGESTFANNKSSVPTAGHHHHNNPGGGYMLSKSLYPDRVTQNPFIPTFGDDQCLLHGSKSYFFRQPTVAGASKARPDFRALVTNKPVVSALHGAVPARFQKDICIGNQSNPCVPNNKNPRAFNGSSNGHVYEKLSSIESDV

| IC50 [1] | IC50 [2] | SMILES |
| --- | --- | --- |
| 27.1 nM |  | Oc1ccc(C(O)CN2C[C@@H]3C[C@@](O)(Cc4ccc(F)cc4)C[C@@H]3C2)cc1 (mixture of isomers) [Example 135, rac-(3aR,5r,6aS)-5-(4-fluorobenzyl)-2-(2-hydroxy-2-(4-hy-droxyphenyl)ethyl)octa-hydrocyclopenta[c]pyrrol-5-ol] |
| ≥ 10000 nM | > 10000 nM | OC(CN1C[C@@H]2C[C@@](O)(Cc3ccccc3)C[C@@H]2C1)c1cnc(OCc2ccccc2)cn1 (mixture of isomers) [Example 163, rac-(3aR,5r,6aS)-5-benzyl-2-(2-(5-(benzyloxy)pyrazin-2-yl)-2-hydroxyethyl)octahydro-cyclopenta[c]pyrrol-5-ol] |
| ≥ 10000 nM | > 10000 nM | OC(CN1C[C@H]2C[C@@H](c3ccccc3)C[C@H]2C1)c1cccc(C(F)(F)F)c1 (mixture of isomers) [Example 116, rac-2-(5-phenylhexahydrocyclo-penta[c]pyrrol-2(1H)-yl)-1-(3-(trifluoromethyl)phenyl) ethanol] |
| 666 nM |  | Cc1cc(C)cc(C[C@]2(O)C[C@H]3CN(CC(O)c4ccc(O)cn4)C[C@H]3C2)c1 (mixture of isomers) [Example 208, rac-6-{2-[(3aR,5R,6aS)-5-[(3,5-dimethylphenyl)methyl]-5-hydroxy-octahydrocyclopenta[c]pyrrol-2-yl]-1-hydroxyethyl}pyridin-3-ol-3-ol] |
| 40.2 nM |  | O=C1CCc2cc(C(O)CN3C[C@@H]4C[C@@](O)(Cc5ccccc5)C[C@@H]4C3)ccc2N1 (mixture of isomers) [Example 153, rac-6-(2-((3aR,5r,6aS)-5-benzyl-5-hydroxyhexahydrocyclo-penta[c]pyrrol-2(1H)-yl)-1-hydroxyethyl)-3,4-dihydroquinolin-2(1H)-one] |
| 32.4 nM |  | CO[C@@]1(Cc2ccccc2)C[C@H]2CN(CC(O)c3ccc(O)cc3)C[C@H]2C1 (mixture of isomers) [Example 176, rac-4-(2-((3aR,5r,6aS)-5-benzyl-5-methoxyhexahydrocyclo-penta[c]pyrrol-2(1H)-yl)-1-hydroxyethyl)phenol] |
| ≥ 10000 nM | > 10000 nM | OC(CN1C[C@@H]2C[C@@](O)(c3ccccc3)C[C@@H]2C1)c1ccccc1 (mixture of isomers) [Example 58, rac-2-(2-hydroxy-2-phenylethyl)-5-phenyloctahydrocyclo-penta[c]pyrrol-5-ol] |
| 40.9 nM | < 100 nM | Oc1ccc(C(O)CN2C[C@@H]3C[C@@](O)(Cc4ccccc4F)C[C@@H]3C2)nc1 (mixture of isomers) [Example 228, rac-5-(2-fluorobenzyl)-2-(2-hydroxy-2-(5-hydroxypyridin-2-yl)ethyl)octahydrocyclo-penta[c]pyrrol-5-olyl)ethanone] |
| 506 nM |  | Oc1ccc(C(O)CN2CC3(C2)CC(O)(Cc2ccccc2)C3)cc1 (racemic) [Example 343, rac-6-benzyl-2-(2-hydroxy-2-(4-hydroxyphenyl)ethyl)-2-azaspiro[3.3]heptan-6-ol] |
| 25.5 nM | < 100 nM | Oc1ccc(C(O)CN2C[C@@H]3C[C@@](O)(Cc4ccccc4)C[C@@H]3C2)cc1 (mixture of isomers) [Example 131, rac-(3aR,5r,6aS)-5-benzyl-2-(2-hydroxy-2-(4-hydroxyphenyl)ethyl)octa-hydrocyclopenta[c]pyrrol-5-ol] |
| ≥ 10000 nM | > 10000 nM | Cc1ccccc1[C@]1(O)C[C@H]2CN(C(C)C(=O)c3ccc(O)cc3)C[C@H]2C1 (mixture of isomers) [Example 94, rac-2-[5-hydroxy-5-(2-methylphenyl)-octahydrocyclopenta[c]pyrrol-2-yl]-1-(4-hydroxyphenyl)propan-1-one] |
| ≥ 10000 nM | > 10000 nM | OC(CN1C[C@@H]2C[C@@](O)(Cc3ccccc3)C[C@@H]2C1)c1ccc(Cl)cc1Cl (mixture of isomers) [Example 287, rac-(3aR,5r,6aS)-5-benzyl-2-(2-(2,4-dichlorophenyl)-2-hydroxyethyl)octahydro-cyclopenta[c]pyrrol-5-ol] |
| 11.5 nM | < 100 nM | Oc1ccc(C(O)CN2C[C@@H]3C[C@@](O)(Cc4ccc(Cl)cc4)C[C@@H]3C2)nc1 (mixture of isomers) [Example 223, rac-(3aR,5r,6aS)-5-(4-chlorobenzyl)-2-(2-hydroxy-2-(5-hydroxypyridin-2-yl)ethyl)octahydrocyclo-penta[c]pyrrol-5-ol] |
| 26.8 nM | < 100 nM | Oc1ccc(C(O)CN2C[C@@H]3C[C@@](O)(Cc4ccccc4)C[C@@H]3C2)nc1 (mixture of isomers) [Example 144, rac-(3aR,5r,6aS)-5-benzyl-2-(2-hydroxy-2-(5-hydroxypyridin-2-yl)ethyl)octahydrocyclo-penta[c]pyrrol-5-ol] |
| 23.8 nM | < 100 nM | Oc1ccc(C(O)CN2C[C@@H]3C[C@@](O)(Cc4ccc(F)cc4F)C[C@@H]3C2)cc1 (mixture of isomers) [Example 245, rac-5-(2,4-difluorobenzyl)-2-(2-hydroxy-2-(4-hydroxyphenyl)ethyl) octahydrocyclopenta[c] pyrrol-5-ol] |
| ≥ 10000 nM | > 10000 nM | O=C(Nc1ccc(Cl)c(C(F)(F)F)c1)N1C[C@@H]2C[C@@](O)(c3ccc(F)cc3)C[C@@H]2C1 [Example 43] |

| IC50 [1] | IC50 [2] | SMILES |
| --- | --- | --- |
| 171 nM |  | Oc1ccc(C(O)CN2C[C@@H]3C[C@@](O)(Cc4ccccc4)C[C@@H]3C2)nc1F (mixture of isomers) [Example 191, rac-(3aR,5r,6aS)-5-benzyl-2-(2-(6-fluoro-5-hydroxypyridin-2-yl)-2-hydroxyethyl)octahydro-cyclopenta[c]pyrrol-5-ol] |
| ≥ 10000 nM | > 10000 nM | Oc1ccc(C(O)CN2C[C@@H]3C[C@@](O)(CCc4ccccc4)C[C@@H]3C2)cc1 (mixture of isomers) [Example 321, rac-2-(2-hydroxy-2-(4-hydroxyphenyl)ethyl)-5-phenethyloctahydro-cyclopenta[c] pyrrol-5-ol] |
| ≥ 10000 nM | > 10000 nM | O=c1ccc(C(O)CN2C[C@@H]3C[C@@](O)(Cc4ccccc4)C[C@@H]3C2)n[nH]1 (mixture of isomers) [Example 158, rac-6-(2-((3aR,5r,6aS)-5-benzyl-5-hydroxyhexahydrocyclo-penta[c]pyrrol-2(1H)-yl)-1-hydroxyethyl)pyridazin-3(2H)-one] |
| ≥ 10000 nM | > 10000 nM | COc1cccc([C@]2(O)C[C@H]3CN(C(=O)Nc4cccc(C(F)(F)F)c4)C[C@H]3C2)c1 [Example 16] |
| 36.3 nM |  | COc1ccc(C[C@]2(O)C[C@H]3CN(CC(O)c4ccc(O)cn4)C[C@H]3C2)cc1 (mixture of isomers) [Example 199, rac-6-{2-[(3aR,5R,6aS)-5-hydroxy-5-[(4-methoxyphenyl)methyl]-octahydrocyclopenta[c]pyrrol-2-yl]-1-hydroxyethyl}pyridin-3-ol] |
| ≥ 10000 nM | > 10000 nM | COc1ccc(NC(=O)N2C[C@@H]3C[C@@](O)(c4ccccc4C)C[C@@H]3C2)cc1 [Example 8] |
| 12.6 nM |  | Oc1ccc(C(O)CN2C[C@@H]3C[C@@](O)(Cc4cccs4)C[C@@H]3C2)cc1 (mixture of isomers) [Example 204, rac-(3aR,5r,6aS)-2-(2-hydroxy-2-(4-hydroxyphenyl)ethyl)-5-(thiophen-2-ylmethyl)octahydrocyclo-penta[c]pyrrol-5-ol] |
| ≥ 10000 nM | > 10000 nM | Oc1ccc(C(O)CN2C[C@@H]3C[C@@](O)(c4ccccc4)C[C@@H]3C2)cc1 (mixture of isomers) [Example 67, rac-2-[2-hydroxy-2-(4-hydroxyphenyl)ethyl]-5-phenyl-octahydrocyclopenta[c] pyrrol-5-ol] |
| 32.4 nM |  | CO[C@@]1(Cc2ccccc2)C[C@H]2CN(CC(O)c3ccc(O)c(F)c3)C[C@H]2C1 (mixture of isomers) [Example 175, rac-4-(2-((3aR,5r,6aS)-5-benzyl-5-methoxyhexahydrocyclo-penta[c]pyrrol-2(1H)-yl)-1-hydroxyethyl)-2-fluorophenol] |
| 143 nM |  | O=C1Cc2cc(C(O)CN3C[C@@H]4C[C@@](O)(Cc5ccccc5)C[C@@H]4C3)ccc2N1 (mixture of isomers) [Example 152, rac-5-(2-((3aR,5r,6aS)-5-benzyl-5-hydroxyhexahydrocyclo-penta[c]pyrrol-2(1H)-yl)-1-hydroxyethyl)indolin-2-one] |
| 2630 nM |  | Oc1ccc(C(O)CN2C[C@@H]3C[C@@](O)(CC4CCCCC4)C[C@@H]3C2)nc1 (mixture of isomers) [Example 214, rac-6-{2-[(3aR,5R,6aS)-5-(cyclohexylmethyl)-5-hydroxy-octahydrocyclopenta[c]pyrrol-2-yl]-1-hydroxyethyl}pyridin-3-ol] |
| 47.6 nM |  | Oc1ccc(C(O)CN2C[C@@H]3C[C@@](O)(Cc4cccc(F)c4F)C[C@@H]3C2)nc1 (mixture of isomers) [Example 248, rac-(3aR,5r,6aS)-5-(2,3-difluorobenzyl)-2-(2-hydroxy-2-(5-hydroxypyridin-2-yl)ethyl)octahydrocyclo-penta[c]pyrrol-5-ol] |
| 47.4 nM |  | COc1ccc(C[C@]2(O)C[C@H]3CN(CC(O)c4ccc(O)cc4)C[C@H]3C2)cc1 (mixture of isomers) [Example 189, rac-(3aR,5r,6aS)-2-(2-hydroxy-2-(4-hydroxyphenyl)ethyl)-5-(4-methoxy-benzyl)octahydro-cyclopenta[c]pyrrol-5-ol] |
| ≥ 10000 nM | > 10000 nM | COc1cccc([C@]2(O)C[C@H]3CN(CC(O)c4cccc(F)c4)C[C@H]3C2)c1 (mixture of isomers) [Example 63, rac-2-[2-(3-fluorophenyl)-2-hydroxyethyl]-5-(3-methoxyphenyl)-octahydrocyclopenta[c] pyrrol-5-ol] |
| 2310 nM |  | CC(=O)Nc1ccc(C(O)CN2C[C@@H]3C[C@@](O)(Cc4ccccc4)C[C@@H]3C2)cc1 (mixture of isomers) [Example 149, rac-N-(4-(2-((3aR,5r,6aS)-5-benzyl-5-hydroxyhexahydrocyclo-penta[c]pyrrol-2(1H)-yl)-1-hydroxyethyl)phenyl)acet-amide] |

| SMILES | IC50 [1] | IC50 [2] |
| --- | --- | --- |
| [2H]C(O)(CN1C[C@@H]2C[C@@](O)(Cc3ccccc3)C[C@@H]2C1)c1ccc(O)cc1 (mixture of isomers) [Example 281, deuterated rac-(3aR,6aS)-5-benzyl-2-((S)-2-hydroxy-2-(4-hydroxyphenyl)ethyl) octahydrocyclopenta [c]pyrrol-5-ol] | 17.4 nM | < 100 nM |
